Laboratory results: patent publication US5670510A, “Pyridyl substituted spirodienes for the treatment of inflammation” (G. D. Searle & Co., priority 1996, dated 1997)

Key:
[1] = test system: cyclooxygenase II; settings: literature: Meade et al; Futaki et al; cited from earlier work
[2] = test system: COX I; settings: read-out: COX I ID50; arachidonic acid 10 μM; pH 8.0; pre-incubated 10-20 minutes
Description: Recombinant baculoviruses were isolated by transfecting 4 μg of baculovirus transfer vector DNA into SF9 insect cells ([…]) along with 200 ng of linearized baculovirus plasmid DNA by the calcium phosphate method. […] Exp. Station Bull. 1555 (1987). Recombinant viruses were purified by three rounds of plaque purification and high titer (10E7-10E8 pfu/ml) stocks of virus were prepared. For large scale production, SF9 insect cells were infected in 10 liter fermentors (0.5×10^6 /ml) with the recombinant baculovirus stock such that the multiplicity of infection was 0.1. After 72 hours the cells were centrifuged and the cell pellet homogenized in Tris/Sucrose (50 mM: 25%, pH 8.0) containing 1% 3-[(3-cholamidopropyl)dimethylammonio]-1-propanesulfonate (CHAPS). The homogenate was centrifuged at 10,000×G for 30 minutes, and the resultant supernatant was stored at -80° C. before being assayed for COX activity.
COX activity was assayed as PGE2 formed/μg protein/time using an ELISA to detect the prostaglandin released. CHAPS-solubilized insect cell membranes containing the appropriate COX enzyme were incubated in a potassium phosphate buffer (50 mM, pH 8.0) containing epinephrine, phenol, and heme with the addition of arachidonic acid (10 μM). […] The PGE2 formed was measured by standard ELISA technology (Cayman Chemical).

[3] = test system: carrageenan-induced hyperalgesic foot withdrawal; assay: Rat Carrageenan-induced Analgesia Test; type: in vivo, Male Sprague-Dawley rats; settings: oral, inhibition of hyperalgesic foot withdrawal 3 h after carrageenan
Description: Rat Carrageenan-induced Analgesia Test
The rat carrageenan analgesia test was performed with materials, reagents and procedures essentially as described by Hargreaves, et al. (Pain, 32, 77 (1988)). Male Sprague-Dawley rats were treated as previously described for the Carrageenan Foot Pad Edema test. Three hours after the injection of the carrageenan, the rats were placed in a special plexiglass container with a transparent floor having a high intensity lamp as a radiant heat source, positionable under the floor. After an initial twenty minute period, thermal stimulation was begun on either the injected foot or on the contralateral uninjected foot. A photoelectric cell turned off the lamp and timer when light was interrupted by paw withdrawal. The time until the rat withdraws its foot was then measured. The withdrawal latency in seconds was determined for the control and drug-treated groups, and percent inhibition of the hyperalgesic foot withdrawal determined.

[4] = test system: carrageenan-induced foot edema; assay: Rat Carrageenan Foot Pad Edema Test; type: in vivo, Male Sprague-Dawley rats; settings: oral, 3 h after carrageenan injection
Description: Rat Carrageenan Foot Pad Edema Test
The carrageenan foot edema test was performed with materials, reagents and procedures essentially as described by Winter, et al. (Proc. Soc. Exp. Biol. Med., 11, 544 (1962)). Male Sprague-Dawley rats were selected in each group so that the average body weight was as close as possible. Rats were fasted with free access to water for over sixteen hours prior to the test. The rats were dosed orally (1 mL) with compounds suspended in vehicle containing 0.5% methylcellulose and 0.025% surfactant, or with vehicle alone. One hour later a subplantar injection of 0.1 mL of 1% solution of carrageenan/sterile 0.9% saline was administered and the volume of the injected foot was measured with a displacement plethysmometer connected to a pressure transducer with a digital indicator. Three hours after the injection of the carrageenan, the volume of the foot was again measured. The average foot swelling in a group of drug-treated animals was compared with that of a group of placebo-treated animals and the percentage inhibition of edema was determined (Ottertess and Bliven, Laboratory Models for Testing NSAIDs, in Non-steroidal Anti-inflammatory Drugs, (J. Lombardino, ed. 1985)).

[5] = literature: Futaki et al; cited from earlier work

Row | SMILES | inhibition of COX II enzyme [1] | IC50 [2] | ANALGESIA % Inhibition @ 10 mg/kg body weight [3] | RAT PAW EDEMA % Inhibition @ 30 mg/kg body weight [4] | gastric side effects [5]
1 | COc1ccc2cc(CC(=O)O)ccc2c1 [6-methoxy-2-napthylacetic acid] | selectively inhibit the COX II enzyme |  |  |  | 
2 | CS(=O)(=O)c1ccc(C2=CC3(C=C2c2ccc(F)cc2)CC3)cc1 [Example 1, 5-(4-Fluorophenyl)-6-[4-(methylsulfonyl)phenyl]spiro[2.4]hepta-4,6-diene] |  | 1.3 µM | 94% | 49% | 
3 | CS(=O)(=O)Nc1ccc([N+](=O)[O-])cc1OC1CCCCC1 [N-(2-cyclohexyloxy-4-nitrophenyl)methanesulfonamide] | inhibits cyclooxygenase II |  |  |  | lacks gastric side effects
